Where two headings read alike, the source gives them in different places.
Columns and labels:
[1] = target: T1, Lp(a) assembly (recombinant human 16K apo(a) and apoB) (Homo sapiens, UniProt P08519); assay: In vitro Lp(a) assembly assay; format: biochemical
T1 construct: containing one KIV type 1, six KIV type 2 repeats, one each of KIV types 3–10 and one KV; expressed in transfected cells; host or cells: Conditioned medium of HEK293 (CRL-1573) stably expressing 16K apo(a), combined with conditioned medium of wild-type HepG2 (HB-8065) for endogenous apoB
Description: HepG2 cells (HB-8065, ATCC) were cultured in Dulbecco’s modified Eagle’s medium, supplemented with 10% fetal bovine serum, 20 mM 4-(2-hydroxyethyl)-1-piperazineethanesulfonic acid (HEPES) and 100 U ml^−1 penicillin–streptomycin. apoB-conditioned media were collected after 24 h of culture at 37 °C and 5% CO2 from confluent wild-type HepG2 cells that endogenously express and secrete apoB. Apo(a)-conditioned media were collected after 24 h of culture at 37 °C and 5% CO2 from HEK293 cells (CRL-1573, ATCC) that stably express and secrete recombinant human 16K apo(a) protein containing one KIV type 1, six KIV type 2 repeats, one each of KIV types 3–10 and one KV.
The assembly assay was conducted in 96-well polypropylene plates by combining HepG2 and apo(a)-HEK293-conditioned media in the presence of a range of compound concentrations. After a two-hour incubation period at 37 °C, the reaction was stopped by the addition of 6-aminocaproic acid. Lp(a) was detected using a sandwich enzyme-linked immunosorbent assay (ELISA), with a polyclonal goat anti-apo(a) capture antibody (Abcam ab31675) and a biotin-conjugated, polyclonal goat anti-apoB detection antibody (Abcam ab20898). In brief, ELISA plates were coated with 100 μl of the capture antibody at a 1:12,500 dilution (around 4 μg ml^−1) into HEPES-buffered saline (HBS), incubated overnight at 4 °C, washed and blocked by the addition of 200 μl of 1% casein. After removal of the blocking buffer, 20 μl of each of the assembly reactions or of a dilution series of purified human Lp(a) (Athens Research, 12-16-121601), diluted 1:5 into HBS supplemented with 0.5% casein, were added to the ELISA plate. […] Absorbance at 450 nm was measured on an Envision plate reader.
The concentration of Lp(a) formed in each test condition was determined on the basis of the standard curve constructed from the purified human Lp(a) used as a reference standard, and was normalized to high (buffer) and low (no apoB) controls. […] Data were analysed in GraphPad Prism v.9.5.1.

apo(a) KIV5–8 [2] = target: T2, apo(a) KIV5–8 (Homo sapiens, UniProt P08519); assay: ITC binding to apo(a) KIV5–8
T2 construct: made in house
T2 sequence (P08519 1043-1470 limits assumed): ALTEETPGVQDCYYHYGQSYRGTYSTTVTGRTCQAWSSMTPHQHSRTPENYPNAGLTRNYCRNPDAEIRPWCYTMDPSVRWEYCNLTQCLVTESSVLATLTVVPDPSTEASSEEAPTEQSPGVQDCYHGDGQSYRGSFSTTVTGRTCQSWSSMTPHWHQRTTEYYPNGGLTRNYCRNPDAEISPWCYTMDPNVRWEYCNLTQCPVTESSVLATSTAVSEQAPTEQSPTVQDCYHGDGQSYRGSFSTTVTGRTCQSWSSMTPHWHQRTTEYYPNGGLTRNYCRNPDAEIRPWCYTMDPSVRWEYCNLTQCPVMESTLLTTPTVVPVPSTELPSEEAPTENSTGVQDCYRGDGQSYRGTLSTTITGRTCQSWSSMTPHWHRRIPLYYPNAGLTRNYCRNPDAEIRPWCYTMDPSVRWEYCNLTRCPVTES
Description: (§1) The nucleotide sequence encoding the human LPA gene (NP_005568.2) was inserted into a mammalian expression vector containing a cytomegalovirus promoter. Protein expression was performed by transient transfection of human embryonic kidney 293 (HEK293) cells cultured in serum-free medium. The culture medium was collected five days after transfection and human apo(a) protein was purified using L-lysine affinity chromatography. Nucleotide sequences encoding various KIV domains of human apo(a) and human and rat plasminogen were inserted into a pET21a Escherichia coli expression vector. Bacterial BL21(DE3) was used as the expression host, and the induction of protein expression was performed in 2× TY medium with 1 mM isopropyl β-D-1-thiogalactopyranoside at 37 °C for 5 h. Cells were collected and stored at –80 °C for subsequent protein purification and refolding. […] All protein concentrations were determined by A280.
Experiments were performed on a MicroCal Auto-iTC200 titration calorimeter (Malvern Panalytical), with a cell volume of 200 μl and a 40-μl microsyringe. […] The microsyringe was loaded with a solution of the respective compounds, with the concentration measured by quantitative nuclear magnetic resonance, and was inserted into the calorimetric cell prefilled with the respective recombinant proteins of known concentration in ITC buffer. […]

apo(a) KIV7–8 = target: T3, apo(a) KIV7–8 (Homo sapiens, UniProt P08519); assay: Radioligand binding to apo(a) KIV7–8
T3 construct: purified recombinant apo(a) KIV7–8 protein; made in house
T3 sequence (P08519 1263-1470 limits assumed): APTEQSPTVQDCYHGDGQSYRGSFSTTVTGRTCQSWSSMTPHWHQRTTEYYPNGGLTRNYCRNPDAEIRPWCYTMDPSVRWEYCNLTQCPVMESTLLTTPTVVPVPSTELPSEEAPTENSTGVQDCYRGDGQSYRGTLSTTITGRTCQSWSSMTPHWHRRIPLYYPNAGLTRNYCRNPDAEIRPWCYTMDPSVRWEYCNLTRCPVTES
Description: (§2) The nucleotide sequence encoding the human LPA gene (NP_005568.2) was inserted into a mammalian expression vector containing a cytomegalovirus promoter. Protein expression was performed by transient transfection of human embryonic kidney 293 (HEK293) cells cultured in serum-free medium. The culture medium was collected five days after transfection and human apo(a) protein was purified using L-lysine affinity chromatography. Nucleotide sequences encoding various KIV domains of human apo(a) and human and rat plasminogen were inserted into a pET21a Escherichia coli expression vector. Bacterial BL21(DE3) was used as the expression host, and the induction of protein expression was performed in 2× TY medium with 1 mM isopropyl β-D-1-thiogalactopyranoside at 37 °C for 5 h. Cells were collected and stored at –80 °C for subsequent protein purification and refolding. The frozen cell pellets were lysed and inclusion bodies were purified. The protein refolding was performed using the rapid-dilution method, and the refolded proteins were further purified by size-exclusion chromatography. All protein concentrations were determined by A280.
(§3) Full-length apo(a) and various shorter constructs were prepared as described. Human and rat plasminogen, purified from plasma by affinity chromatography, were obtained from Innovative Research (IHGPG and IRPLG, respectively).
(§4) All reagents used in the binding assays were prepared in assay buffer containing 50 mM Tris-HCl, pH 7.4, and 0.1% bovine serum albumin. […]
(§5) Saturation binding studies of ^3H-LSN3441732 or ^3H-LSN3374443 were conducted by adding to each well of a white-wall, clear-bottom 96-well plate, 50 µl each of (1) dimethyl sulfoxide (DMSO) or a saturating concentration (40 μM) of an unlabelled ligand; (2) protein diluted into assay buffer; (3) resuspended wheat germ agglutinin polyvinyltoluene scintillation proximity assay beads (2 mg ml^−1); and (4) a dilution series of radioligand. Plates were incubated for one to two hours at room temperature and counted on a Wallac Trilux 1450 liquid scintillation counter. […]

apo(a) KIV8 = target: T4, apo(a) KIV8 (Homo sapiens, UniProt P08519); assay: Radioligand binding to apo(a) KIV8
T4 construct: made in house
T4 sequence (P08519 1387-1465 limits assumed): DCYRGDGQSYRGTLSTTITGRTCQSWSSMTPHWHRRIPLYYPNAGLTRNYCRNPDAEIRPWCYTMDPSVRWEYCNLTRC
Description: as §1, with “h.” for “h. Cells were collected and stored at –80 °C for subsequent protein purification and refolding.”, “A280. […]” for “A280.”
as §5

rat plasminogen = assay: Saturation radioligand binding to rat plasminogen
Description: as §3
(§6) All reagents used in the binding assays were prepared in assay buffer containing 50 mM Tris-HCl, pH 7.4, and 0.1% bovine serum albumin. All apo(a) proteins were diluted to a final concentration of 200 pM. Human and rat plasminogen were diluted into assay buffer, and 250 ng was added to each well.
as §5, with “counter. Non-specific binding, defined as binding in the presence of the unlabelled ligand, was subtracted to determine specific binding.” for “counter.”

apo(a) KIV5–8 [3] = target: T2, apo(a) KIV5–8; assay: Radioligand binding to apo(a) KIV5–8; conditions: Experiment 1, read-out: Kd (nM) KIV5–8 Exp 1
Description: as §1, with “h.” for “h. Cells were collected and stored at –80 °C for subsequent protein purification and refolding.”, “A280. […]” for “A280.”
as §5

apo(a) KIV7 [4] = target: T5, apo(a) KIV7 (Homo sapiens, UniProt P08519); assay: Radioligand binding to apo(a) KIV7
T5 construct: made in house
Description: as §2, §3, §4, §5

[5] = target: T6, full-length recombinant 16K apo(a) (Homo sapiens, UniProt P08519); assay: Radioligand binding to full-length recombinant 16K apo(a)
T6 construct: Full-length apo(a) and various shorter constructs were prepared as described; made in house
Description: as §2, §3, §6
Saturation binding studies of ^3H-LSN3441732 or ^3H-LSN3374443 were conducted by adding to each well of a white-wall, clear-bottom 96-well plate, 50 µl each of (1) dimethyl sulfoxide (DMSO) or a saturating concentration (40 μM) of an unlabelled ligand; (2) protein diluted into assay buffer; (3) resuspended wheat germ agglutinin polyvinyltoluene scintillation proximity assay beads (2 mg ml^−1); and (4) a dilution series of radioligand. Plates were incubated for one to two hours at room temperature and counted on a Wallac Trilux 1450 liquid scintillation counter. Non-specific binding, defined as binding in the presence of the unlabelled ligand, was subtracted to determine specific binding. Specific binding was plotted as a function of ligand concentration, and a single-site binding equation of the form y = Bmax × x/(Kd + x) was fitted to the data, where Bmax is the maximum saturable binding and Kd is the equilibrium dissociation constant.

Lp(a) = conditions: humans; cited from earlier work
Lp(a) assembly = test system: Lp(a) assembly; set-up: method as in PMID 11802713; conditions: cited from earlier work
apo(a) KIV7 [6] = target: apo(a) KIV7; set-up: method as in PMID 11802713; conditions: binding to lysine-binding domain of apo(a) KIV7; cited from earlier work

T6 sequence (P08519 20-2040): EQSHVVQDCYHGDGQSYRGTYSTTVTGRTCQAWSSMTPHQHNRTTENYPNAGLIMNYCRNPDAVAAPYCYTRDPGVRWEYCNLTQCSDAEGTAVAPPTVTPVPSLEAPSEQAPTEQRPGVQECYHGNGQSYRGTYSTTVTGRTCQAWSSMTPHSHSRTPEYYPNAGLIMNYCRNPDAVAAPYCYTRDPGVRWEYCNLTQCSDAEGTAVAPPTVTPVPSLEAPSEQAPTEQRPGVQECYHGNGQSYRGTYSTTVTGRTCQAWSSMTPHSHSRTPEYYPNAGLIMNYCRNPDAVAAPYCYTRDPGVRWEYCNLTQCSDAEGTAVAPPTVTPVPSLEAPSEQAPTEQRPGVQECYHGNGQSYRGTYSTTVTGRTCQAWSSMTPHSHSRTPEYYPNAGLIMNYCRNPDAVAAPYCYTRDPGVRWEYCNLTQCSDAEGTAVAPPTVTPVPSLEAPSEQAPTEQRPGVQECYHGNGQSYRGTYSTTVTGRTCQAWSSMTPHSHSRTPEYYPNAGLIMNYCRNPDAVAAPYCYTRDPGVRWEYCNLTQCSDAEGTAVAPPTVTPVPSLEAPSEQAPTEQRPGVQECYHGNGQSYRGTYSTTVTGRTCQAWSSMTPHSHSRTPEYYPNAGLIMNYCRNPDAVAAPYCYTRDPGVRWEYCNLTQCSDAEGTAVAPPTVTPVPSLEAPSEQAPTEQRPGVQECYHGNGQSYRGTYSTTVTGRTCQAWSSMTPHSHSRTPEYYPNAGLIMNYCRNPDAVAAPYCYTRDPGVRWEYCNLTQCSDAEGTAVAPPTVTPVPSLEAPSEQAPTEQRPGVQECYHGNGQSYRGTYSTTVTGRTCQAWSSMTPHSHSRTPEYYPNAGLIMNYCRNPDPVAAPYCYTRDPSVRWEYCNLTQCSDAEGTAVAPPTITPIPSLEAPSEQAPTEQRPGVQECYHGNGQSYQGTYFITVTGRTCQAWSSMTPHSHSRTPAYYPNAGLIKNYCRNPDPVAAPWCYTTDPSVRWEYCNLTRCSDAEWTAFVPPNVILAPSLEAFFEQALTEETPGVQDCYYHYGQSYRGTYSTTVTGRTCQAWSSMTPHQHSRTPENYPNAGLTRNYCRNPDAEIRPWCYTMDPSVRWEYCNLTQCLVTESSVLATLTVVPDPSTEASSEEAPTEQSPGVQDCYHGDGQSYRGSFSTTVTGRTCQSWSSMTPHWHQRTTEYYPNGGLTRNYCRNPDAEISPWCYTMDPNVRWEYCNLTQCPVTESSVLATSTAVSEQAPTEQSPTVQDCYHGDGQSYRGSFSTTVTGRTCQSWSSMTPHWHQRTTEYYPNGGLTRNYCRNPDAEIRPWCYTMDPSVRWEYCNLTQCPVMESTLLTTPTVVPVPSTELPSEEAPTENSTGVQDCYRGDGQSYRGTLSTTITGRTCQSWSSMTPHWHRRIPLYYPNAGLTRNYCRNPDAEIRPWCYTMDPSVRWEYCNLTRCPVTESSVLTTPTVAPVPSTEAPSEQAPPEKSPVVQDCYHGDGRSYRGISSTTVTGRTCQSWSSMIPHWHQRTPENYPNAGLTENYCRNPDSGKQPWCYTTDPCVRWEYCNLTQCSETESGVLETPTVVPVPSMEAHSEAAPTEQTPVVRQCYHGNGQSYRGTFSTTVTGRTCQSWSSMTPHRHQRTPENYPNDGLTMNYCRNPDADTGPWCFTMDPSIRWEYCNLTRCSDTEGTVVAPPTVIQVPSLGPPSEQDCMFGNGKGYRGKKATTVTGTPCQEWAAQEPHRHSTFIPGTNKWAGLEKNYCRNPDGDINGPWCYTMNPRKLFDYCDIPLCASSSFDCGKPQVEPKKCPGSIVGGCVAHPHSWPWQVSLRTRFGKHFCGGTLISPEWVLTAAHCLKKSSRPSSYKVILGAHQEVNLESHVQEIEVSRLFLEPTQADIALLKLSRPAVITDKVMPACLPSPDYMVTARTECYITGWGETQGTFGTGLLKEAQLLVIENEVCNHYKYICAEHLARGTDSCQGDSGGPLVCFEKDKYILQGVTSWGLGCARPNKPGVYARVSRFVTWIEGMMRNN
T1 sequence (P08519 20-2040): as above

## COc1cccc(N2CCN(c3cccc(C[C@H](C(=O)O)[C@H]4CCNC4)c3)C2=O)c1 [LSN3374443]
[1]
  IC50: 36 nM
apo(a) KIV5–8 [2]
  Kd: < 15 nM

## O=C(Nc1cccc(C[C@H](C(=O)O)[C@H]2CCNC2)c1)Nc1cccc(C[C@H](C(=O)O)[C@H]2CCNC2)c1 [^3H-LSN3441732]
apo(a) KIV7–8; direct radioligand binding, read-out: Kd, KIV7–8
  Kd: 0.21 nM
apo(a) KIV7–8; radioligand binding, Experiment 1, read-out: Kd (nM) KIV7–8 Exp 1
  Kd: 0.32 nM
apo(a) KIV7–8; radioligand binding, Experiment 2, read-out: Kd (nM) KIV7–8 Exp 2
  Kd: 0.1 nM
apo(a) KIV8; direct radioligand binding, read-out: Kd, single KIV8
  Kd: 2 nM
apo(a) KIV8; radioligand binding, Experiment 1, read-out: Kd (nM) KIV8 Exp 1
  Kd: 3 nM
Rat plasminogen
  fold higher affinity for rat plasminogen than for human plasminogen: 50 fold
apo(a) KIV5–8 [3]
  Kd: 0.33 nM
apo(a) KIV7 [4]; direct radioligand binding, read-out: Kd, single KIV7
  Kd: 2.8 nM
apo(a) KIV7 [4]; radioligand binding, Experiment 1, read-out: Kd (nM) KIV7 Exp 1
  Kd: 3 nM
apo(a) KIV7 [4]; radioligand binding, Experiment 2, read-out: Kd (nM) KIV7 Exp 2
  Kd: 2.7 nM
[5]; direct radioligand binding
  Bmax, full-length apo(a): 4.9 fmol ng^−1 apo(a)
[5]; direct radioligand binding, mean
  Kd: 0.05 nM
[5]; from Bmax
  ligands per molecule of apo(a): one
[5]; full-length apo(a)
  fold affinity increase versus ^3H-LSN3374443: 50 fold

## NC[C@H]1CC[C@H](C(=O)O)CC1 [tranexamic acid]
Lp(a)
  levels of Lp(a) in a small clinical study: reduce the levels of Lp(a)
Lp(a) assembly
  in vitro assembly of Lp(a): inhibited
apo(a) KIV7 [6]
  Kd: 63000 nM

## NCCCCCC(=O)O [ε-aminocaproic acid]
Lp(a) assembly
  in vitro assembly of Lp(a): inhibited
apo(a) KIV7 [6]
  Kd: 230000 nM
